What is called EC50 is the concentration needed to bring the measured effect to its halfway point.

Where a name gives a salt, the structure may show the parent alone. Read-outs that look alike come from different tables or passages of the source.

Test in all cases: cell-based
The target in assay [1] is T1, cat T1R1/T1R3 receptor (Felis catus, UniProt A0ABI7Z2I4).
T1 sequence (A0ABI7Z2I4 171-420): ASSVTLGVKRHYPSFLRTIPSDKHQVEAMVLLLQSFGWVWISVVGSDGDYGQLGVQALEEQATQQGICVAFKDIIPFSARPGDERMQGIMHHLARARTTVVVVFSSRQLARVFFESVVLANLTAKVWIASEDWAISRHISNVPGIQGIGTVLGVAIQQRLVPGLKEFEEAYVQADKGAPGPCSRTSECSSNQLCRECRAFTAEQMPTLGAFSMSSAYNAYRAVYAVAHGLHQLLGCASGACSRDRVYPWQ
T1 sequence (Q49KI5 25-865 E206Q/N523D/F654L partner): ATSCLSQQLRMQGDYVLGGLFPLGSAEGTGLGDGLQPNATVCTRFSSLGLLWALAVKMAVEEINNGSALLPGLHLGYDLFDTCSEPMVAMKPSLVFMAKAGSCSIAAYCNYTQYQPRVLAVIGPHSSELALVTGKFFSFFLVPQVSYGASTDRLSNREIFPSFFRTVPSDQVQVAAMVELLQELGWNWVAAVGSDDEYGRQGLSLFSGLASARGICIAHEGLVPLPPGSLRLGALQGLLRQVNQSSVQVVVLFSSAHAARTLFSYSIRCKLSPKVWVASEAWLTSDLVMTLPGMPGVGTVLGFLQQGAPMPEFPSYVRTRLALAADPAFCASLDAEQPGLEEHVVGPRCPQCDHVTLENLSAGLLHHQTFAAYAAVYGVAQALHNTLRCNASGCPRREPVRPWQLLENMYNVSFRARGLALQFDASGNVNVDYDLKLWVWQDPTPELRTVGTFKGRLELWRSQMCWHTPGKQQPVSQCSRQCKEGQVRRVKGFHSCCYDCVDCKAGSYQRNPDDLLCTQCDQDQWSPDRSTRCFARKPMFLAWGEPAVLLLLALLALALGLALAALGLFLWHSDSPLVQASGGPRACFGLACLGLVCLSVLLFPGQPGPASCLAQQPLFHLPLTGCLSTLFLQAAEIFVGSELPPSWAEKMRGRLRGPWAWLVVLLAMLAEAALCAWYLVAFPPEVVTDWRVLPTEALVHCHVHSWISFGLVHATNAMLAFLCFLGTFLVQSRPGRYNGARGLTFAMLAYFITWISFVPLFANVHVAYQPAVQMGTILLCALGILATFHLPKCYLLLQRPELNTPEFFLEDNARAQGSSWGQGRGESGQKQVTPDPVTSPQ
On the procedure:
[…] Activation of the T1R1/T1R3 receptor was detected by a change in intracellular calcium levels using a calcium sensitive fluorescent dye. Cells that express T1R3 but not T1R1 were used as a control. A FLIPR® Tetra or a FlexStation® 3 was used for data capture.
In each experiment, serial dilutions of up to 0.1 mM, 1 mM or 10 mM of the nucleotide derivative were added to the T1R1/T1R3-expressing cells.

For assay [2], the target named is T1, cat T1R1/T1R3 receptor. A digest of the protocol:
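HEK293 cells stably expressing T1R3 with inducible T1R1, treated with nucleotide derivatives alone or combined with amino acids and/or nucleotides. Activation read as intracellular calcium change by calcium-sensitive fluorescent dye and/or luminescent reporter. Cells expressing T1R3 without T1R1 served as control.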
This is another data set of the same source.

In the next assay the target is T1R1/T1R3 receptor (Felis catus, UniProt E3UMS2). The gist of the method: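 HEK293 cells stably expressing T1R3 with inducible T1R1 were given transmembrane compounds in serial dilutions up to 10 mM, alone or with amino acids and/or nucleotides. Receptor activation was read as an intracellular calcium change with a calcium-sensitive fluorescent dye; T1R3-only cells served as control.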

For the compound `O=c1nc[nH]c2c1ncn2C1O[C@H](COP(=O)(O)OP(=O)(O)OP(=O)(O)O)[C@@H](O)[C@H]1O` (stereo partly drawn) [inosine triphosphate (ITP) trisodium salt], on cat T1R1/T1R3 receptor [1] (with 20 mM alanine, read-out: EC50- with Ala), the EC50 worked out at 0.08 ± 0.01 mM. In addition, on cat T1R1/T1R3 receptor [2], the outcome was active, the EC50 amounted to 0.08 mM, the “Max resp. (ΔF/F)” value is 0.3 ΔF/F and the “Max. resp. % of IMP” value was 25.1 % of IMP. For the same compound, on cat T1R1/T1R3 receptor [2], the Threshold came out at 0.02 mM.

As for `C[C@H](N)C(=O)O` [alanine], the EC50 on T1R1/T1R3 receptor (EC50 (effect with 0.2 mM IMP)) came to 12.3 ± 1.3 mM; at T1R1/T1R3 receptor (EC50 (mM), +IMP (0.2 mM)), 12.3 mM; at cat T1R1/T1R3 receptor [1] (EC50- alone) it was 13.6 mM; on cat T1R1/T1R3 receptor [2] it was 13.6 ± 4.3 mM. Moreover, the “Max resp % of Ala, +IMP (0.2 mM)” value on T1R1/T1R3 receptor (in the presence of 0.2 mM IMP, relative to alanine) is on record as 100.0%. For the same compound, the “Thres (mM), +IMP (0.2 mM)” value at T1R1/T1R3 receptor (threshold concentration in the presence of 0.2 mM IMP) is 3.0 mM.
